# Measurements taken from ChEMBL document CHEMBL5620387, “Discovery of 4'-trifluoromethylchalcones as novel, potent and selective hCYP1B1 inhibitors without concomitant AhR activation” (Eur J Med Chem, 2023).
# Legend:
# [1] = Metabolic stability in human liver microsomes assessed as relative remaining concentration measured after 60 mins by LC-UV analysis; format: ADME, Microsome; settings: read-out: INH
# [2] = Metabolic stability in human liver microsomes assessed as half life measured after 60 mins by LC-UV analysis; format: ADME, Microsome
# [3] = biological target: T1, Cytochrome P450 1B1 (Homo sapiens, UniProt Q16678); experiment: Inhibition of human recombinant CYP1B1 assessed as fluorescence of resorufin
# T1 sequence (Q16678 whole entry): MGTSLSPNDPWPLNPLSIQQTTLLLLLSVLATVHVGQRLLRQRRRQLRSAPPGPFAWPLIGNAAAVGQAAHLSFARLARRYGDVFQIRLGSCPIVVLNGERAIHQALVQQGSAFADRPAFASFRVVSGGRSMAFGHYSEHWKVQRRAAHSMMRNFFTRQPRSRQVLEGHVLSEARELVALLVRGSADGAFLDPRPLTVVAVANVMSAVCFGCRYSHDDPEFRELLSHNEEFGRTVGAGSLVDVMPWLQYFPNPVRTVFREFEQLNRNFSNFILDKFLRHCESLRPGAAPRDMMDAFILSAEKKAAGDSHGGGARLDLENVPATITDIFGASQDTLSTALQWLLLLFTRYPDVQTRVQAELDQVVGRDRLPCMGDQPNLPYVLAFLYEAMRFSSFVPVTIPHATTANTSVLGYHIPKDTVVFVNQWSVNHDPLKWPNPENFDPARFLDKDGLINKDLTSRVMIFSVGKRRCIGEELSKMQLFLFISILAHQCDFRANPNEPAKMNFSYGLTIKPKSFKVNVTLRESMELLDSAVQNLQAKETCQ
# [4] = biological target: T2, Cytochrome P450 1A2 (Homo sapiens, UniProt P05177); experiment: Inhibition of human recombinant CYP1A2 assessed as fluorescence of resorufin; format: ADME
# T2 sequence (P05177 whole entry): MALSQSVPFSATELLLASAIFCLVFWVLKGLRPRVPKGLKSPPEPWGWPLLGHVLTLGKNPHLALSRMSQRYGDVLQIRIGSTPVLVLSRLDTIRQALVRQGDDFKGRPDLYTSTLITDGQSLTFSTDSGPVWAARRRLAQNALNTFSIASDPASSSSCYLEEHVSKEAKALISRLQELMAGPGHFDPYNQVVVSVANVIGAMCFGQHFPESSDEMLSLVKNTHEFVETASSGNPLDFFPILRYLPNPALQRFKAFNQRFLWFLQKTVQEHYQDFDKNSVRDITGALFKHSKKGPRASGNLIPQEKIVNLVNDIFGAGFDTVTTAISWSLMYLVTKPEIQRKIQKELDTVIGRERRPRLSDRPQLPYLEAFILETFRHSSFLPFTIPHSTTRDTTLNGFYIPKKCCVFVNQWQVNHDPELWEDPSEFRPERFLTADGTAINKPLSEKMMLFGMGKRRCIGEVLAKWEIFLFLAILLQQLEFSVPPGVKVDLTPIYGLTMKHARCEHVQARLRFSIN
# [5] = biological target: T3, Aryl hydrocarbon receptor (Homo sapiens, UniProt P35869); experiment: Agonist activity at aryl hydrocarbon receptor (unknown origin) expressed in HEK293T cells assessed as luciferase activity at 10 uM measured after 24 hrs; format: toxicity, cell-based
# T3 sequence (P35869 whole entry): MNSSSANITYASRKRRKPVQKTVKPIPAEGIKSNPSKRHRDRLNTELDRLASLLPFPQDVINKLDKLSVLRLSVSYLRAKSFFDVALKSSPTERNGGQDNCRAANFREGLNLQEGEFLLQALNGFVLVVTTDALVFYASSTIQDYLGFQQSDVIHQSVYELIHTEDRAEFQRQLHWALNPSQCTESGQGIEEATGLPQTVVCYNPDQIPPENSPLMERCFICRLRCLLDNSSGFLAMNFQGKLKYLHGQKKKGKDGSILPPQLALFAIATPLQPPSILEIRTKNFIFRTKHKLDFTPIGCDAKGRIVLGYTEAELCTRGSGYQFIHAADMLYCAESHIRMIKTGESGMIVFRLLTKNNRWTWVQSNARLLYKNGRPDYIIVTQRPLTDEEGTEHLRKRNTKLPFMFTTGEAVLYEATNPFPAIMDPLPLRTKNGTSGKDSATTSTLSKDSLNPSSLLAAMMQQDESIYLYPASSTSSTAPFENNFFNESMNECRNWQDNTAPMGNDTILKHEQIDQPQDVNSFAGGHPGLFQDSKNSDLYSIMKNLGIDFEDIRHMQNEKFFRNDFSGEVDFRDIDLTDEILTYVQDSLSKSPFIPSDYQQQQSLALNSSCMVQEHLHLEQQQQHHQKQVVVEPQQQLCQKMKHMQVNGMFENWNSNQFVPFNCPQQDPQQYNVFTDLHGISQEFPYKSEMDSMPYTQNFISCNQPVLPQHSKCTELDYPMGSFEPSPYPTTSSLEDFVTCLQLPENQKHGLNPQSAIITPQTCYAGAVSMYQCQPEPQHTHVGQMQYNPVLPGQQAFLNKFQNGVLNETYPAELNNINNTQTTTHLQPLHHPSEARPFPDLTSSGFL
compound,measurement,setting,value
C[C@]12CC[C@H]3[C@@H](CCC4=CC(=O)CC[C@@]43C)[C@@H]1CC[C@@H]2O [TESTOSTERONE],remaining at 1 h,[1],43.7%
same,half-life,[2],58.2 min
O=C(/C=C/c1ccccc1)c1ccc(O)cc1 [4'-HYDROXYCHALCONE],IC50,[3],1130 nM
CCOc1ccc(/C=C/C(=O)c2ccc(C(F)(F)F)cc2)c(OC)c1,IC50,[4],> 100000 nM
same,Activity,[5],Active
O=C(/C=C/c1ccccc1)c1ccc(Br)cc1,IC50,[3],36 nM
CCCOc1ccc(/C=C/C(=O)c2ccc(C(F)(F)F)cc2)c(OC)c1,IC50,[4],> 100000 nM
CCOc1ccc(/C=C/C(=O)c2ccc(C(F)(F)F)cc2)cc1,IC50,[4],> 100000 nM
COc1cc(OC)c(/C=C/C(=O)c2ccc(C(F)(F)F)cc2)cc1Br,IC50,[4],> 100000 nM
O=C(/C=C/c1ccc(F)cc1F)c1ccc(C(F)(F)F)cc1,IC50,[4],> 100000 nM
Cc1ccc(C(=O)/C=C/c2ccccc2)cc1,IC50,[3],31 nM
O=C(/C=C/c1ccccc1)c1ccc([N+](=O)[O-])cc1,IC50,[3],280 nM
O=C(/C=C/c1ccc(F)cc1)c1ccc(C(F)(F)F)cc1,IC50,[4],> 100000 nM
O=C(/C=C/c1ccc(O)cc1)c1ccc(C(F)(F)F)cc1,IC50,[4],> 100000 nM
COc1ccc(/C=C/C(=O)c2ccc(C(F)(F)F)cc2)cc1,IC50,[4],> 100000 nM
Nc1ccc(C(=O)/C=C/c2ccccc2)cc1,IC50,[3],1060 nM
Cc1ccc(/C=C/C(=O)c2ccc(C(F)(F)F)cc2)c(C)c1,IC50,[4],> 100000 nM
